B1: DKK1: recombinant DKK1 (Dickkopf protein 1), inhibitor of canonical Wnt signaling (protein, UniProt O94907 32-266, looked up)
Dickkopf-related protein 1: TLNSVLNSNAIKNLPPPLGGAAGHPGSAVSAAPGILYPGGNKYQTIDNYQPYPCAEDEECGTDEYCASPTRGGDAGVQICLACRKRRKRCMRHAMCCPGNYCKNGICVSSDQNHFRGEIEETITESFGNDHSTLDGYSRRTTLSSKMYHTKGQEGSVCLRSSDCASGLCCARHFWSKICKPVLKEGQVCTKHRRKGSHGLEIFQRCYCGEGLSCRIQKDHHQASNSSRLHTCQRH

Legend:
[1] = system: colon carcinoma cell line DLD-1; settings: catenin-dependent colon carcinoma cell line; cited from earlier work
[2] = system: human ESC (WA-09, HES-3) and iPS cells (C72, SeV6); assay: FOXG1 / PAX6 induction during neural differentiation of hPSCs (immunofluorescence quantification); assay type: cell-based; settings: for PAX6 expression after addition of Wnt antagonist to dual SMAD inhibition protocol: HES-3 (NKX2.1::GFP) line, FIG. 1C; for FOXG1 expression in LSB-treated cultures: Wnt antagonist added to LSB dual SMAD inhibition, XAV939 2 μM, DKK1 250 ng/ml
From the text: Human ESC (lines WA-09, HES-3 (NKX2.1::GFP) and iPS cells (C72, SeV6) were maintained on mouse embryonic fibroblasts (MEFs) as described previously and dissociated with Accutase (Innovative Cell Technologies) for differentiation or dispase for passaging (Chambers et al., Nat Biotechnol 27:275-280 (2009)). Media used for differentiation included KSR-medium, N2 medium (DMEM/F12 with NaHCO3, N2B supplement (Stem Cell Technologies), and Neurobasal media with B27 (Gibco) and N2 supplements (Invitrogen) as described previously. Kriks et al., Nature 480:547-551 (2011). The small molecules compounds used included: XAV939 (2 μM; Stemgent), LDN193189 (100 nM; Stemgent), SB431542 (10 μM; Tocris), and Purmorphamine (1-2 μM; Calbiochem), ascorbic acid (200 μM) and dibutyryl-cyclic AMP (dbcAMP, 200 μM; both from Sigma). Recombinant growth factors: SHH (C25II; 50-500 ng/ml), Noggin (125 ng/ml), DKK1 (250 ng/ml), and BDNF (10 ng/ml) were purchased from R&D Systems or for FGF2 (10 ng/ml) from Promega and used at the concentrations indicated in the manuscript.
Cultures were fixed in 4% paraformaldehyde in phospate-buffered saline and processed for immunofluorescent staining and confocal microscopy. Secondary antibodies used for primary antibody detection were species-specific Alexa-dye conjugates (Invitrogen). For primary antibodies, we used antibodies to rabbit FOXG1 (gift from Eseng Lai); mouse PAX6 (DSHB); mouse NKX2.1 (Labvision); goat NKX2.1 (C-20, Santa Cruz); rabbit OLIG2 (Chemicon); goat FOXA2 (Santa Cruz); rabbit LHX6 (Abeam); mouse RAX (Abnova); rabbit GAPDH (Thermo Scientific); goat DCX (Santa Cruz); mouse TUJ1 (Covance); rabbit GABA (Sigma); mouse Nestin (Thermo Scientific); rabbit KI67 (Labvision); mouse KI67 (Dako); rabbit Calbindin (Chemicon); mouse Calretinin (Swant); chick GFP (Abeam); goat Chat (Chemicon); rat somatostatin (Chemicon); mouse TH (Abeam); rabbit NOS (Swant); mouse Parvalbumin (Chemicon); mouse PSD-95 (Zymed); guinea-pig VGLUT1 (Synaptic systems); rabbit VGAT (Synaptic systems); and mouse Gephyrin (Synaptic Systems).
FOXG1 and PAX6 quantification: Using a 20× objective, 25 fields were imaged from 3 wells and from 4 independent differentiation studies. The number of DAPI+ nuclei was used as the denominator and either FOXG1+ nuclei or PAX6+ nuclei were used for the numerator. NKX2.1::GFP co-labeling: Using a 20× objective, 25-30 fields were imaged from 4 wells from 4 independent differentiations. The number of NKX2.1::GFP+ cells was used as the denominator and the numerator chosen for each analyzed marker. As a control for each marker, secondary antibody in the absence of primary antibody was used as a negative control to designate signal specificity.

[3] = system: SW480 cells; settings: cited from earlier work
[4] = system: motor neurons (MNs); settings: trophic factors removed, 72 hr; cited from earlier work

Row | Molecule | proliferation of DLD-1 cells [1] | effect on FOXG1 induction across independent hESC (HES-3, WA-09) and human iPSC lines (C72, SeV6) ([2]; FIG. 1E) | PAX6 expression after addition of Wnt antagonist to dual SMAD inhibition protocol [2] | FOXG1 expression in LSB-treated cultures [2] | degradation of β-catenin [3] | protein levels of the axin-GSK3β complex [3] | healthy survival of MNs [4]
1 | Oc1nc(-c2ccc(C(F)(F)F)cc2)nc2c1CSCC2 [XAV939, 3,5,7,8-Tetrahydro-2-[4-(trifluoromethyl)phenyl]-4H-thiopyrano[4,3-d]pyrimidin-4-one] | inhibits proliferation | consistent | did not result in a loss | greatly enhanced | promotes the degradation | increases | –
2 | O=C1Cc2c([nH]c3ccc(Br)cc23)-c2ccccc2N1 [kenpaullone] | – | – | – | – | – | – | impressive ability to prolong
3 | B1 | – | – | did not result in a loss | greatly enhanced | – | – | –
